Measurements as given in article PMC9204300, “Investigating the Mechanism of Inhibition of Cyclin-Dependent Kinase 6 Inhibitory Potential by Selonsertib: Newer Insights Into Drug Repurposing” (Frontiers in Oncology, 2022).

Target: Cyclin-dependent kinase 6 (CDK6) (Homo sapiens, UniProt Q00534)
Assay: biochemical

Chain of Cyclin-dependent kinase 6 (CDK6) (Q00534 whole entry): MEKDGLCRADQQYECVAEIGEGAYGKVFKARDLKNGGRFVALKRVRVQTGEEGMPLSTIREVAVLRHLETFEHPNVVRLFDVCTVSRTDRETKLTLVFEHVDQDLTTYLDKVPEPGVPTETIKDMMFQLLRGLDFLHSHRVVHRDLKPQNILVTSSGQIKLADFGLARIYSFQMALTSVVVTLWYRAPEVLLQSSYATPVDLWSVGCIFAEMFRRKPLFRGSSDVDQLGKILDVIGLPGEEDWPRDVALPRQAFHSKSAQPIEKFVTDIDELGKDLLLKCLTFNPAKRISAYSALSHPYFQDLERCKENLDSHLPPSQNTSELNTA

## Cc1cc(F)c(C(=O)Nc2cccc(-c3nncn3C(C)C)n2)cc1-n1cnc(C2CC2)c1 [selonsertib]
  Kd: 5.56 µM
